Test results as given in patent publication US20260272933A1, “USE OF HETEROCYCLIC COMPOUND IN TREATMENT OF INTERSTITIAL PNEUMONIA” (SUZHOU KINTOR PHARMACEUTICALS, INC., priority 2023, published 2026).
Entries after “also recorded” stand apart in the source; their conditions may differ.

Tests used:
[1] = Body weight and clinical observations during the rat pulmonary fibrosis study; type: in vivo, SD rats; settings: Group 5, 40 mg/kg, after administration, FIGS. 44 and 45
From the text: (§1) 55 SD rats were purchased from Zhejiang Charles River Laboratory Animal Technology Co., Ltd. and housed in the SPF-grade barrier system of KCl Biotechnology (Suzhou) Co., Ltd. The animal use certification number was SYXK (Su) 2017-0041, the temperature, humidity and light control system follows international standards.
After the rats were under surgical anesthesia, the experimental model was constructed according to the guidelines for establishing the unilateral pulmonary fibrosis model in KCl. The skin was shaved, locally disinfected, and then a layered incision was made to expose and preserve the trachea. Bleomycin (dose: 3 mg/kg) was administered via intratracheal instillation to induce left lung fibrosis. After confirming no bleeding, the incision was closed layer-by-layer using 2-0 silk surgical sutures. After the surgery, the animals were placed on a 37° C. electric heating pad until fully recovered. Normal feeding and drinking were confirmed before returning the animals to standard housing. Starting from the day of modeling, meloxicam (1 mg/kg) was administered subcutaneously once daily for three consecutive days for postoperative analgesia. […]

GLi2 = test: Western blot: degradation of TGF-β-induced GLi2 protein in A549 cells; type: cell-based, Human; settings: 24-hour treatment, FIG. 43
Method: (§2) Human lung carcinoma cells (A549 cell line) were purchased from Shanghai Cell Bank of Chinese Academy of Sciences.
(§3) The cells were cultured in RPMI (Roswell Park Memorial Institute)-1640 medium supplemented with 10% FBS (Fetal Bovine Serum) and 1% penicillin-streptomycin. The cell culture conditions were 5% CO2 and […] Upon reaching approximately 80% confluence, the cells were subcultured at a 1:3 ratio.
(§4) A549 cells in the exponential growth phase were digested and plated into 6-well plates at 1×10^6 cells per well. After one day of growth, TGF-β (transforming growth factor-β) and different concentrations of compound B-1-1 were added to culture the cells. Protein was extracted 24 hours after drug treatment.
(§5) After removing the culture medium from the 6-well plates, the cells were washed once with PBS (phosphate-buffered saline) and then trypsinized. The cells were collected in 1.5 mL microcentrifuge tubes by centrifugation. […]
(§6) The protein concentration was determined using a BCA Protein Assay Kit. […] After thoroughly mixing, the plate was incubated at 60° C. for 10 min, and the absorbance was measured at 562 nm. Record the readings and plot a standard curve based on the standard concentration gradient. The protein concentration of the samples was calculated by substituting the sample absorbance values into the standard curve. […]

α-SMA = test: Western blot: degradation of TGF-β-induced α-SMA protein in A549 cells; type: cell-based, Human; settings: 24-hour treatment, FIG. 43
Method: as §2, §3, §4, §5, §6

[2] = test system: Bleomycin-induced unilateral pulmonary fibrosis model in SD rats; test: Bleomycin-induced unilateral pulmonary fibrosis model, Masson Trichrome staining, Ashcroft fibrosis score of left lung; type: in vivo; settings: for Fibrosis Score (Ashcroft), left lung: p.o., 28 days from Day 8, model group 3.79 ± 0.08, p < 0.001 vs. Model group
From the text: as §1
(§7) Anesthesia: 1-2.5% isoflurane was used for respiratory anesthesia to maintain deep anesthesia of the animals.
(§8) After the rats were under surgical anesthesia, the experimental model was constructed according to the guidelines for establishing the unilateral pulmonary fibrosis model in KCl. The skin was shaved, locally disinfected, and then a layered incision was made to expose and preserve the trachea. Bleomycin (dose: 3 mg/kg) was administered via intratracheal instillation to induce left lung fibrosis. After confirming no bleeding, the incision was closed layer-by-layer using 2-0 silk surgical sutures. After the surgery, the animals were placed on a 37° C. electric heating pad until fully recovered. Normal feeding and drinking were confirmed before returning the animals to standard housing. Starting from the day of modeling, meloxicam (1 mg/kg) was administered subcutaneously once daily for three consecutive days for postoperative analgesia.
(§9) Prior to modeling, animals were randomly divided into five groups based on body weight, as follows: Sham model group (normal group) (n=10), model group (n=10), Nintedanib 100 mg/kg, qd group (n=10), Compound B-1-1 20 mg/kg, bid group (n=10), Compound B-1-1 40 mg/kg, bid group (n=10). The administration began on the 8th day after modeling. • Nintedanib: administered orally, once daily for 28 consecutive days; • Compound B-1-1: administered orally, twice daily for 28 consecutive days.
(§10) After euthanasia, animals were perfused systemically with pre-cooled PBS at 4° C. The lungs were collected, and the left lung lobes were perfused with formalin. Histopathological examinations were performed using HE staining and Masson Trichrome staining. HE staining was used to evaluate the extent of bronchial and small pulmonary artery injury and inflammation, while Masson Trichrome staining assessed the degree of pulmonary fibrosis.
(§11) The entire left lung was dehydrated and embedded in paraffin. Paraffin sections of the entire left lung were prepared at a thickness of 3 μm. HE-stained sections were used for pathological analysis and scoring of injury and inflammatory changes in terminal bronchioles and accompanying small pulmonary arteries within and surrounding the lesion (Tables 4-2 and 4-3). Masson Trichrome staining was performed on the left lung paraffin sections, and the stained sections were scanned using the Nano Zoomer Digital Pathology scanner (S210) to obtain whole-slide images. Ten areas of 1 mm^2 each were randomly selected within the lesion area, and semi-quantitative scoring was conducted under a double-blind condition according to the Ashcroft scoring system (Table 4-4).
(§12) Statistical analysis was performed using Prism 6.0 software. Data are expressed as mean±SEM (standard error). One-way ANOVA was used for the analysis, and Tukey's method was selected for the comparison of differences between groups; when comparing between two groups, a T-test was used for two-tailed detection; when p<0.05, there was a significant difference between the two groups. In cases where outliers were suspected due to large within-group variability, the Identify Outliers function in GraphPad Prism 6.0 was used to detect and exclude outlier values. For data analysis purposes, all relevant data from any animal excluded from the efficacy evaluation were also omitted from statistical analysis.

GLi1 = test: Western blot: degradation of TGF-β-induced GLi1 protein in A549 cells; type: cell-based, Human; settings: 24-hour treatment, FIG. 43
Method: as §2, §3, §4, §5, §6

[3] = test system: Bleomycin-induced unilateral pulmonary fibrosis model in SD rats; test: Bleomycin-induced unilateral pulmonary fibrosis model, HE staining injury and inflammation score of terminal bronchioles and small pulmonary arteries; type: in vivo; settings: for Injury Score of Terminal Bronchioles and Accompanying Small Pulmonary Arteries, At Margin Lesion / Injury Score of Terminal Bronchioles and Accompanying Small Pulmonary Arteries, Within Lesion: p.o., 28 days from Day 8, Mean ± SEM, p < 0.001 vs. Model group; for Injury Score of Terminal Bronchioles and Accompanying Small Pulmonary Arteries, At Margin Lesion: model group 5.44 ± 0.12; for Injury Score of Terminal Bronchioles and Accompanying Small Pulmonary Arteries, Within Lesion: model group 9.44 ± 0.22
From the text: as §1, §7, §8, §9, §10, §11, §12

[4] = both doses, 20 mg/kg and 40 mg/kg, twice daily from Day 8, p<0.001
[5] = 100 mg/kg, once daily from Day 8, p<0.001

Structure (SMILES)	body weight gain compared with the model group [1]	degradation of TGF-β-induced GLi2 protein (Western blot) (GLi2)	degradation of TGF-β-induced α-SMA protein (Western blot) (α-SMA)	Fibrosis Score (Ashcroft), left lung ([2]; 20 mg/kg, b.i.d.)	effect in inhibiting the progression of pulmonary fibrosis lesions compared with positive drug nintedanib ([2]; 40 mg/kg, BID, versus nintedanib 100 mg/kg, QD)	Fibrosis Score (Ashcroft), left lung ([2]; 40 mg/kg, b.i.d.)	pulmonary fibrosis scores / progression compared to the model group (in words) [2, 4]	degradation of TGF-β-induced GLi1 protein (Western blot) (GLi1)	Injury Score of Terminal Bronchioles and Accompanying Small Pulmonary Arteries, At Margin Lesion ([3]; 20 mg/kg, b.i.d.)	Injury Score of Terminal Bronchioles and Accompanying Small Pulmonary Arteries, Within Lesion ([3]; 20 mg/kg, b.i.d.)	Injury Score of Terminal Bronchioles and Accompanying Small Pulmonary Arteries, At Margin Lesion ([3]; 40 mg/kg, b.i.d.)	Injury Score of Terminal Bronchioles and Accompanying Small Pulmonary Arteries, Within Lesion ([3]; 40 mg/kg, b.i.d.)	inflammatory infiltration and pathological injury in terminal bronchioles and small pulmonary arteries within and at the margins of fibrotic lesions, compared to model group (in words) [3, 4]	pulmonary fibrosis compared to the model group (in words) [2, 5]	Fibrosis Score (Ashcroft), left lung ([2]; 100 mg/kg, q.d.)	inflammatory cell infiltration and injury in terminal bronchioles and small pulmonary arteries within and surrounding fibrotic lesions, compared to model group (in words) [3, 5]	Injury Score of Terminal Bronchioles and Accompanying Small Pulmonary Arteries, At Margin Lesion ([3]; 100 mg/kg, q.d.)	Injury Score of Terminal Bronchioles and Accompanying Small Pulmonary Arteries, Within Lesion ([3]; 100 mg/kg, q.d.)
Cc1cnc(-c2cc(N3CCc4nc(N5CCC(O)CC5)ncc4[C@H]3C)ncc2Cl)c(C)c1 [Compound B-1-1]	slower rate of weight gain	effectively degraded	effectively degraded	2.93 ± 0.20	same excellent effect	2.62 ± 0.18	significantly reduced; also recorded: significantly inhibit	effectively degraded	3.50 ± 0.43	6.96 ± 0.46	3.14 ± 0.35	6.20 ± 0.47	significantly decreased; also recorded: significantly improved					
COC(=O)c1ccc2c(c1)NC(=O)/C2=C(\Nc1ccc(N(C)C(=O)CN2CCN(C)CC2)cc1)c1ccccc1 [Nintedanib, nintedanib, reference compound]														significantly ameliorated; also recorded: significantly improved	2.57 ± 0.09	significantly reduced; also recorded: amelioration	2.72 ± 0.17	6.24 ± 0.21
